Patent US20210393856A1, “COMPOSITIONS AND METHODS FOR REDUCING CALCIFICATION OF HEART VALVES” (Arizona Board of Regents on Behalf of the University of …, priority 2018, published 2021)

Key:
[1] = tested on: AVM cultures; test: Effects of adenosine and adenosine receptor agonists on Runx2 expression in AVM cultures (qPCR); format: cell-based, mouse; conditions: for expression of Runx2 compared to control cultures: up to 5 days, FIG. 12
Excerpt: Expression was normalized to GAPDH. Average of 3 independent repeats with SEM.
Runx2 expression increases in calcifying AVM cells with time in culture. Cells treated with either 2′-MeCCPA (A1 agonist) or PSB0777 (A2a agonist) up to 5 days.
Adenosine levels were confirmed using HPLC.

[2] = tested on: mouse VIC; test: Osteogenic markers after mouse VIC incubation with adenosine receptor agonists; format: cell-based; conditions: mouse VIC / AVM cell cultures, FIG. 8
[3] = tested on: calcifying AVM cells; test: Runx2-II and Mgp in calcifying AVM cells in the presence of AMP; format: cell-based, mouse; conditions: FIG. 9
[4] = tested on: AVM cell cultures; test: qPCR measurement of osteogenic marker expression by AVM cell cultures (ATP, PO4, CD73); format: cell-based, mouse
Excerpt: (§1) Over 5 days, exposure to this concentration of ATP is apoptotic as measured by the ratio of Bax/Bcl2, and this may contribute to calcification.

[5] = tested on: valve cell cultures; test: Apoptosis measured by the ratio of Bax/Bcl2 in valve cell cultures; format: cell-based; conditions: 100 μM, over 5 days
Excerpt: as §1

[6] = tested on: Alkaline phosphatase (ALP); conditions: aortas incubated in osteogenic medium (Zukowska et al., 2017); cited from earlier work
[7] = tested on: calcifying AVM cell cultures; test: Runx2 isoform and osteogenic marker expression in calcifying AVM cell cultures with various treatments; format: cell-based, mouse
Description: Embryonic precursors of valvular interstitial cells (VICs) calcify when grown as tissue culture aggregates similar to micromass cultures of limb cells developed by (Ahrens et al., 1977). A mouse fetal VIC cell line (AVM cells) obtained from the Immortamouse (gift of Kai Jiao, UAB) were used to investigate calcification. These cells express a temperature sensitive Large T antigen and are immortal at 33° C. and revert to a valvular phenotype at 37° C.
The cell and organ culture models described above are used to study valve calcification by staining and expression of osteogenic markers. […] Both Runx2 isoform levels are elevated concomitant with calcification in vitro and in situ. To explore the relationship between identified regulators and markers of the osteogenic program in calcifying valve tissues, Runx2 isoform and osteogenic marker expression was measured in calcifying AVM cell cultures with various treatments. AVM cultures were treated with siRNA against Runx2-II, noggin (inhibitor of BMP), an anti-TGFβ antibody (against all three isoforms), and DAPT (inhibitor of Notch signaling). […] These indicate that Runx2 is a fairly central player in this calcification process but that Runx2 expression, in these cultures, is independent of TGFβ and BMP signaling.
For cell culture, human and porcine VICs and human valvular endothelial cells (VECs) are used. VICs are expanded from initial culture and stored as aliquots in liquid nitrogen. All experiments are performed with low passage number cells and each cell source is profiled by the UA Genetics Core to confirm and maintain the identity of each cell line. A mouse AV valve mesenchymal cell line (AVM) was obtained from Kai Jao (U. of Ala., Birmingham). These cells were from mice containing a temperature sensitive large T transgene (Immorta-Mouse) and the cells were grown at 33° C. to obtain an immortal cell line (Peng et al., 2017). The cells revert to a cushion/valve phenotype at 37° C. The micromass cultures of Solursh and colleagues (Ahrens et al.,1977) were recapitulated to observe calcification in vitro in this cell system. Calcium deposits became visible by von Kossa staining by 5 days in culture and prominent by day 12 (FIG. 3). […] Marker expression is consistent with a valve calcification phenotype and supports a central role for Runx2 in calcification (FIG. 2). For organ culture of intact valves, fresh aortic pig valves are obtained from the meat lab in the College of Agriculture and incubated on the surface of collagen gels. Experiments compare responses in intact aortic valves and VIC and VEC cell lines. […] Though 19 purinergic receptors are identified in Table 1, those P2Y and P2X receptors that are not found in valve tissues are excluded from further analysis.

[8] = tested on: micromass cultures; test: Concentration of adenosine in culture media of micromass cultures after adding recombinant CD73; format: cell-based; design: concentration of adenosine in the culture media: unit not given here; conditions: 1 μg/ml, approximately 100,000 cells in a dish

C[C@@]1(O)[C@H](O)[C@@H](CO)O[C@H]1n1cnc2c(NC3CCCC3)nc(Cl)nc21 [2′-MeCCPA]
expression of Runx2 compared to control cultures ([1]; 0.1 μM): reduced | induction of osteogenic markers (Runx2 and MGP) [2]: significant induction

Nc1ncnc2c1ncn2[C@@H]1O[C@H](COP(=O)(O)O)[C@@H](O)[C@H]1O [AMP]
Runx2-II and Mgp [3]: reduced

Nc1ncnc2c1ncn2[C@@H]1O[C@H](COP(=O)(O)OP(=O)(O)OP(=O)(O)O)[C@@H](O)[C@H]1O [ATP]
osteocalcin and osteopontin ([4]; 100 μM added every 12 hr, at 5 days): large increase | apoptosis as ratio of Bax/Bcl2 [5]: apoptotic | Alkaline phosphatase (ALP) activity [6]: increased

C[C@H](NC(=O)Cc1cc(F)cc(F)c1)C(=O)N[C@H](C(=O)OC(C)(C)C)c1ccccc1 [DAPT, reference compound]
Runx2 expression [7]: reduced Runx2 expression | expression of other markers (Twist1, Cbfβ, MGP) [7]: upregulated the other markers

O=P(O)(O)O [PO4]
osteogenic markers ([4]; added to culture media, at 12 days, FIG. 13): increases

Nc1nc(SCCc2ccc(S(=O)(=O)O)cc2)nc2c1ncn2[C@@H]1O[C@H](CO)[C@@H](O)[C@H]1O [PSB0777]
expression of Runx2 compared to control cultures ([1]; 1 μM): reduced | induction of osteogenic markers (Runx2 and MGP) [2]: significant induction

Nc1ncnc2c1ncn2[C@@H]1O[C@H](CO)[C@@H](O)[C@H]1O [adenosine]
Runx2 expression ([1]; AVM cultures at 0.35 μM, 3.5 μM and 50 μM adenosine, normalized to GAPDH, FIG. 11): inhibited at an exposure consistent with the high affinity A1 receptor | Alkaline phosphatase (ALP) activity [6]: reduced

B1: noggin: inhibitor of BMP (protein, UniProt Q13253 28-232, looked up)
Noggin: QHYLHIRPAPSDNLPLVDLIEHPDPIFDPKEKDLNETLLRSLLGGHYDPGFMATSPPEDRPGGGGGAAGGAEDLAELDQLLRQRPSGAMPSEIKGLEFSEGLAQGKKQRLSKKLRRKLQMWLWSQTFCPVLYAWNDLGSRFWPRYVKVGSCFSKRSCSVPEGMVCKPSKSVHLTVLRWRCQRRGGQRCGWIPIQYPIISECKCSC
Runx2 expression [7]: little effect | expression of other markers (Twist1, Cbfβ, MGP) [7]: lesser effects

B2: recombinant CD73: ecto-5′-nucleotidase, converts AMP to adenosine (protein, UniProt P21589 27-549, looked up)
5'-nucleotidase: WELTILHTNDVHSRLEQTSEDSSKCVNASRCMGGVARLFTKVQQIRRAEPNVLLLDAGDQYQGTIWFTVYKGAEVAHFMNALRYDAMALGNHEFDNGVEGLIEPLLKEAKFPILSANIKAKGPLASQISGLYLPYKVLPVGDEVVGIVGYTSKETPFLSNPGTNLVFEDEITALQPEVDKLKTLNVNKIIALGHSGFEMDKLIAQKVRGVDVVVGGHSNTFLYTGNPPSKEVPAGKYPFIVTSDDGRKVPVVQAYAFGKYLGYLKIEFDERGNVISSHGNPILLNSSIPEDPSIKADINKWRIKLDNYSTQELGKTIVYLDGSSQSCRFRECNMGNLICDAMINNNLRHTDEMFWNHVSMCILNGGGIRSPIDERNNGTITWENLAAVLPFGGTFDLVQLKGSTLKKAFEHSVHRYGQSTGEFLQVGGIHVVYDLSRKPGDRVVKLDVLCTKCRVPSYDPLKMDEVYKVILPNFLANGGDGFQMIKDELLRHDSGDQDINVVSTYISKMKVIYPAVEGRIKFS
increase of adenosine concentration in the culture media [8]: 5 fold | concentration of adenosine in the culture media ([8]; from 1.7 without enzyme): 8.7 | effects of exogenous ATP (osteogenic markers, apoptosis) ([4]; exogenous enzyme added with 100 μM ATP): reduced
